According to article PMC1838525 (Protein science : a publication of the Protein Society, 2006):

Molecular target: T1, Vam7p PX domain (Saccharomyces cerevisiae, UniProt P32912)
T1 sequence (P32912 2-122): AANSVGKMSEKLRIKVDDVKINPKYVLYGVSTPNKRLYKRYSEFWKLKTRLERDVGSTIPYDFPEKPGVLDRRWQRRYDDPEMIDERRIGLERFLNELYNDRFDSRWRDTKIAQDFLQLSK
Assay: 1H, […] HSQC NMR titration
Assay type: binding

`CCCC(=O)OC[C@H](COP(=O)(O)O[C@@H]1[C@H](O)[C@H](OP(=O)(O)O)[C@@H](O)[C@H](O)[C@H]1O)OC(=O)CCC` [C4-PtdIns(3)P] gave a Kd of 299 ± 26 µM.
